Results on 1 compound are retold here after ChEMBL document CHEMBL4834480, “Discovery of 3,5-Dimethyl-4-Sulfonyl-1H-Pyrrole-Based Myeloid Cell Leukemia 1 Inhibitors with High Affinity, Selectivity, and Oral Bioavailability” (J Med Chem, 2021).

For data set [1], the system named is NCI-H929. Nature of the data set: Antiproliferative activity against human NCI-H929 cells assessed as decrease in cell viability measured after 72 hrs by MTT assay. The data set is classed as functional, cell-based. The settings on record: NCI-H929, 72 h. (Tetrazolium dyes change colour on reduction, which living cells bring about.)
For data set [2], the system named is K562. Nature of the data set: Induction of apoptosis in human K562 cells assessed as activation of caspase 3 up to 5 uM after 4 hrs by luminescence based microplate reader assay. The data set is classed as functional, cell-based. The settings on record: dose microM <=5, time 4.0 hrs.
Data set [3] concerns K562. Nature of the data set: Induction of apoptosis in human K562 cells assessed as activation of caspase 7 up to 5 uM after 4 hrs by luminescence based microplate reader assay. The data set is classed as functional, cell-based. The conditions noted are these: dose microM <=5, time 4.0 hrs.
Data set [4] can be described thus: Stability of the compound in mouse plasma assessed as parent compound remaining measured after 2 hrs by LC-MS/MS analysis. The settings on record: read-out: Stabilty. The data set is classed as ADME, cell-free.
Data set [5] can be described thus: Stability of the compound in human plasma assessed as parent compound remaining measured after 2 hrs by LC-MS/MS analysis. It is filed as ADME, cell-free. The conditions noted are these: read-out: Stabilty.
A short description of data set [6]: AUCt in Sprague-Dawley rat at 3 mg/kg, iv measured up to 24 hrs by LC-MS/MS analysis. It is filed as ADME, organism-based. On the set-up: route intravenous, dose 3 mg/kg, time <=24. The settings on record: in vivo.
The nature of data set [7]: Toxicity in BALB/c nude mouse xenografted with human MV4-11 cells assessed as effect on liver weight at 20 mg/kg, ip administered every two days for 14 days. The data set is classed as organism-based. The conditions noted are these: in vivo, 336 h, time 14 day. Background: A xenograft is tissue or cells of one species grown in another, often human tumour cells in immunodeficient mice.

Data set [8] can be described thus: Toxicity in BALB/c nude mouse xenografted with human MV4-11 cells assessed as effect on kidney at 20 mg/kg, ip administered every two days for 14 days by hematoxyin-eosin staining based analysis. The conditions noted are these: in vivo, 336 h, time 14 day. The data set is classed as organism-based.

Structures are written as SMILES. The source made the active and inactive calls. No cut-off for these calls is given here.

The term IC50 denotes the concentration needed to halve the response being measured. Broadly, the AUC(0-t) is exposure summed from dosing to a finite time, without extrapolation to infinity. Read a high AUC(0-t) as high exposure. Regarding `CC(=O)c1ccc(S(=O)(=O)c2c(C)c(C(=O)O)n(CCCOc3cc(C)c(Cl)c(C)c3)c2C)cc1`, the 50% inhibitory concentration (IC50) in data set [1] was 360 nM. In addition, the result in data set [2] and in data set [3] was inactive. Further, the remaining at 2 h in data set [4] stood at 100%; in data set [5], 96.5%. In addition, the exposure AUC(0-t) at 24 h in data set [6] is 3290 ng·h/mL. The Activity result in data set [7] and in data set [8] was “Non-Toxic” in each case.
